Measured values as given in PubChem BioAssay (NCI).
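Assay format: 96-well plates, 48-hour exposure. TGI is the concentration that stops growth completely.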

Columns and labels:
Experiment in all cases: DTP human tumour cell line panel, 48 h
KM12 colon = system: KM12 colon
M19-MEL melanoma = system: M19-MEL melanoma
NCI-H226 lung = system: NCI-H226 lung
XF 498 CNS = system: XF 498 CNS
SK-MEL-28 melanoma = system: SK-MEL-28 melanoma
SNB-19 CNS = system: SNB-19 CNS
UACC-257 melanoma = system: UACC-257 melanoma
HL-60(TB) leukemia = system: HL-60(TB) leukemia
EKVX NSCLC = system: EKVX NSCLC
NCI-H522 lung = system: NCI-H522 lung
UO-31 renal = system: UO-31 renal
ACHN renal = system: ACHN renal
OVCAR-8 ovarian = system: OVCAR-8 ovarian
SW-620 colon = system: SW-620 colon
SN12C renal = system: SN12C renal
IGROV1 ovarian = system: IGROV1 ovarian
LXFL 529 NSCLC = system: LXFL 529 NSCLC
U251 CNS = system: U251 CNS
SF-295 CNS = system: SF-295 CNS
MALME-3M melanoma = system: MALME-3M melanoma
KM20L2 colon = system: KM20L2 colon
HCT-116 colon = system: HCT-116 colon
NCI-H23 lung = system: NCI-H23 lung
DMS 114 small cell lung = system: DMS 114 small cell lung
RXF 393 renal = system: RXF 393 renal
M14 melanoma = system: M14 melanoma
CCRF-CEM leukemia = system: CCRF-CEM leukemia
OVCAR-3 ovarian = system: OVCAR-3 ovarian
786-0 renal = system: 786-0 renal
LOX IMVI melanoma = system: LOX IMVI melanoma
MOLT-4 leukemia = system: MOLT-4 leukemia
HOP-92 NSCLC = system: HOP-92 NSCLC
SNB-75 CNS = system: SNB-75 CNS
HCT-15 colon = system: HCT-15 colon
DMS 273 small cell lung = system: DMS 273 small cell lung
COLO 205 colon = system: COLO 205 colon
SF-268 CNS = system: SF-268 CNS
SK-OV-3 ovarian = system: SK-OV-3 ovarian
SK-MEL-5 melanoma = system: SK-MEL-5 melanoma
SF-539 CNS = system: SF-539 CNS
UACC-62 melanoma = system: UACC-62 melanoma
DLD-1 colon = system: DLD-1 colon
A549 NSCLC = system: A549 NSCLC
HOP-18 NSCLC = system: HOP-18 NSCLC
A498 renal = system: A498 renal
OVCAR-4 ovarian = system: OVCAR-4 ovarian
CAKI-1 renal = system: CAKI-1 renal
HCC-2998 colon = system: HCC-2998 colon
NCI-H460 lung = system: NCI-H460 lung
HT29 colon = system: HT29 colon
K-562 leukemia = system: K-562 leukemia
SNB-78 CNS = system: SNB-78 CNS
SK-MEL-2 melanoma = system: SK-MEL-2 melanoma
OVCAR-5 ovarian = system: OVCAR-5 ovarian
TK-10 renal = system: TK-10 renal
HOP-62 NSCLC = system: HOP-62 NSCLC
RPMI-8226 leukemia = system: RPMI-8226 leukemia
SR leukemia = system: SR leukemia

Measured: TGI

O=C(Cc1nc2ccccc2s1)C(=O)Nc1ccccc1C(F)(F)F
> 100 µM: KM12 colon | M19-MEL melanoma | NCI-H226 lung | XF 498 CNS | SK-MEL-28 melanoma | SNB-19 CNS | UACC-257 melanoma | HL-60(TB) leukemia | EKVX NSCLC | NCI-H522 lung | UO-31 renal | ACHN renal | OVCAR-8 ovarian | SW-620 colon | SN12C renal | IGROV1 ovarian | LXFL 529 NSCLC | U251 CNS | SF-295 CNS | MALME-3M melanoma | KM20L2 colon | HCT-116 colon | NCI-H23 lung | DMS 114 small cell lung | RXF 393 renal | M14 melanoma | CCRF-CEM leukemia | OVCAR-3 ovarian | 786-0 renal | LOX IMVI melanoma | MOLT-4 leukemia | HOP-92 NSCLC | SNB-75 CNS | HCT-15 colon | DMS 273 small cell lung | COLO 205 colon | SF-268 CNS | SK-OV-3 ovarian | SK-MEL-5 melanoma | SF-539 CNS | UACC-62 melanoma | DLD-1 colon | A549 NSCLC | HOP-18 NSCLC | A498 renal | OVCAR-4 ovarian | CAKI-1 renal | HCC-2998 colon | NCI-H460 lung | HT29 colon | K-562 leukemia | SNB-78 CNS | SK-MEL-2 melanoma | OVCAR-5 ovarian | TK-10 renal | HOP-62 NSCLC

CC(=O)OC12CCCCC1C1(CCCC1)NC2=O (configuration not stated)
> 100 µM: KM12 colon | M19-MEL melanoma | NCI-H226 lung | XF 498 CNS | SK-MEL-28 melanoma | SNB-19 CNS | UACC-257 melanoma | HL-60(TB) leukemia | EKVX NSCLC | UO-31 renal | ACHN renal | OVCAR-8 ovarian | SW-620 colon | SN12C renal | IGROV1 ovarian | LXFL 529 NSCLC | U251 CNS | SF-295 CNS | MALME-3M melanoma | KM20L2 colon | RPMI-8226 leukemia | HCT-116 colon | NCI-H23 lung | DMS 114 small cell lung | RXF 393 renal | M14 melanoma | CCRF-CEM leukemia | OVCAR-3 ovarian | 786-0 renal | LOX IMVI melanoma | MOLT-4 leukemia | SNB-75 CNS | HCT-15 colon | SF-268 CNS | SK-OV-3 ovarian | SF-539 CNS | UACC-62 melanoma | DLD-1 colon | A549 NSCLC | HOP-18 NSCLC | A498 renal | OVCAR-4 ovarian | HCC-2998 colon | NCI-H460 lung | HT29 colon | K-562 leukemia | SNB-78 CNS | SR leukemia | OVCAR-5 ovarian | TK-10 renal | HOP-62 NSCLC
